Test: Tested for the NMDA antagonist activity using a functional assay, by protection of cultured hippocampus neurons from the toxic effects of extracellularly applied glutamate

Q: Which IC50 does the source give for `O=C1Cc2cc(C(O)CN3CCC(Cc4ccc(F)cc4)CC3)ccc2N1` (stereo not given) [5-{2-[4-(4-Fluoro-benzyl)-piperidin-1-yl]-1-hydroxy-ethyl}-1,3-dihydro-indol-2-one] here?
A: 600 nM

Q: For `OC(CN1CCC(Cc2ccc(F)cc2)CC1)c1ccc(Cl)cc1` (stereo not given), which IC50 is on record?
A: 1000 nM

Q: For `C[C@@H]([C@@H](O)c1ccc2c(c1)CC(=O)N2)N1CCC(c2ccccc2)CC1` [5-[(1S,2S)-1-Hydroxy-2-(4-phenyl-piperidin-1-yl)-propyl]-1,3-dihydro-indol-2-one], which IC50 is on record?
A: 40 nM

Q: Which IC50 does the source give for `C[C@@H]([C@@H](O)c1ccc2c(c1)CC(=O)N2)N1CCC(Cc2ccccc2)CC1` [5-[(1S,2S)-2-(4-Benzyl-piperidin-1-yl)-1-hydroxy-propyl]-1,3-dihydro-indol-2-one] here?
A: 111 nM

Q: Which IC50 does the source give for `C[C@@H]([C@H](O)c1ccc2c(c1)CC(=O)N2)N1CCC(Cc2ccccc2)CC1` [5-[(1R,2S)-2-(4-Benzyl-piperidin-1-yl)-1-hydroxy-propyl]-1,3-dihydro-indol-2-one] here?
A: 231 nM
